Values joined by “and” are separate entries in the source; they are usually repeats but may differ in a detail not shown here. Identical values can stand only once. Square brackets hold non-standard residues; d marks the D form. Peptide text beside a SMILES is read from it. Ac5c = NC1(C(=O)O)CCCC1
Test system: Swiss mice, Sarcoma 180 sc, mean tumor weight T/C
Assay: NCI In Vivo Anticancer Drug Screen. Data for tumor model Sarcoma 180 (subcutaneous) in Swiss mice
Conditions: endpoint: mean tumor weight, higher = larger tumour
Summary of the method: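 Mice bearing transplanted tumors were treated with compound, and survival or tumor size was measured. Values are expressed as the treated-group measurement (T) divided by the vehicle-treated control measurement (C).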

[1] = dose: 12.5 mg/kg/injection, schedule: Q01DX007 (ip), vehicle: saline
[2] = dose: 100.0 mg/kg/injection, schedule: Q01DX007 (ip), vehicle: saline
[3] = dose: 150.0 mg/kg/injection, schedule: Q01DX007 (ip), vehicle: saline
[4] = dose: 4.0 mg/kg/injection, schedule: Q01DX007 (ip), vehicle: saline

Q: How did the T/C (dose: 6.25 mg/kg/injection, schedule: Q#A X014 (ip), vehicle: carboxymethylcellulose (CMC)) turn out when `Nc1nc(N)c2[nH]cnc2n1` was run?
A: Its T/C is 106 % of control.

Q: What about the T/C (dose: 11.25 mg/kg/injection, schedule: Q#A X014 (ip), vehicle: carboxymethylcellulose (CMC)) of the same compound?
A: Its T/C is 103 % of control.

Q: What about the T/C (dose: 22.5 mg/kg/injection, schedule: Q#A X014 (ip), vehicle: carboxymethylcellulose (CMC)) of the same compound?
A: Its T/C is 83 % of control.

Q: And the T/C (dose: 25.0 mg/kg/injection, schedule: Q#A X014 (ip), vehicle: carboxymethylcellulose (CMC))?
A: The T/C was 121 % of control.

Q: And the T/C (dose: 45.0 mg/kg/injection, schedule: Q#A X014 (ip), vehicle: carboxymethylcellulose (CMC))?
A: Its T/C is 68 % of control.

Q: And the T/C (dose: 90.0 mg/kg/injection, schedule: Q#A X014 (ip), vehicle: carboxymethylcellulose (CMC))?
A: Its T/C is 48 % of control.

Q: For `NCC(O)c1ccc(O)c(O)c1` (stereo not drawn), which T/C (dose: 3.1 mg/kg/injection, schedule: Q01DX007 (ip), vehicle: saline) is on record?
A: The T/C was 84 % of control.

Q: What about the T/C [1] of the same compound?
A: Its T/C is 57 % of control and 77 % of control.

Q: `CCc1c(CC(=O)O)c2cc(C)ccc2n1Cc1ccc(Cl)cc1` was tested. Which T/C (dose: 6.25 mg/kg/injection, schedule: Q01DX007 (ip), vehicle: saline) did it give?
A: The T/C was 82 % of control.

Q: What about the T/C [1] of the same compound?
A: The T/C was 98 % of control and 87 % of control.

Q: And the T/C (dose: 24.0 mg/kg/injection, schedule: Q01DX007 (ip), vehicle: carboxymethylcellulose (CMC))?
A: The T/C was 95 % of control.

Q: And the T/C (dose: 36.0 mg/kg/injection, schedule: Q01DX007 (ip), vehicle: carboxymethylcellulose (CMC))?
A: Its T/C is 89 % of control.

Q: What about the T/C (dose: 54.0 mg/kg/injection, schedule: Q01DX007 (ip), vehicle: carboxymethylcellulose (CMC)) of the same compound?
A: Its T/C is 109 % of control.

Q: And the T/C (dose: 81.0 mg/kg/injection, schedule: Q01DX007 (ip), vehicle: carboxymethylcellulose (CMC))?
A: The T/C was 73 % of control.

Q: What about the T/C [2] of the same compound?
A: The T/C was 64 % of control and 80 % of control.

Q: For `COc1cc2c3c(c4ccc(OC)c(OC)c4c2cc1OC)CN1CCC[C@@H]1C3`, which T/C (dose: 12.0 mg/kg/injection, schedule: Q01DX007 (ip), vehicle: water) is on record?
A: The T/C was 21 % of control.

Q: Which results are given for `NCC(=O)NC1(C(=O)O)CCCC1` (H-Gly-[Ac5c]-OH)?
A: T/C (dose: 66.0 mg/kg/injection, schedule: Q01DX007 (ip), vehicle: saline): 57 % of control; T/C [2]: 103 % of control; T/C [3]: 45 % of control; T/C (dose: 225.0 mg/kg/injection, schedule: Q01DX007 (ip), vehicle: saline): 47 % of control

Q: Which results are given for `CCN(CC)P(=O)(N1CC1)N1CC1`?
A: T/C (dose: 1.0 mg/kg/injection, schedule: Q#A X014 (ip), vehicle: methylcellulose (MC)): 64 % of control; T/C (dose: 1.0 mg/kg/injection, schedule: Q#A X014 (ip), vehicle: saline): 90 % of control and 92 % of control; T/C (dose: 1.5 mg/kg/injection, schedule: Q#A X014 (ip), vehicle: methylcellulose (MC)): 60 % of control; T/C (dose: 2.0 mg/kg/injection, schedule: Q#A X014 (ip), vehicle: methylcellulose (MC)): 82 % of control; T/C (dose: 3.0 mg/kg/injection, schedule: Q#A X014 (ip), vehicle: saline): 19 % of control and 38 % of control; T/C [4]: 48 % of control

Q: What does the source list for `N=[N+]=CC(=O)OCC(N)C(=O)O` (stereo not drawn)?
A: T/C (dose: 0.25 mg/kg/injection, schedule: Q#A X014 (ip), vehicle: carboxymethylcellulose (CMC)): 61 % of control; T/C (dose: 0.5 mg/kg/injection, schedule: Q#A X014 (ip), vehicle: carboxymethylcellulose (CMC)): 35 % of control; T/C (dose: 0.57 mg/kg/injection, schedule: Q#A X014 (ip), vehicle: carboxymethylcellulose (CMC)): 65 % of control; T/C (dose: 0.92 mg/kg/injection, schedule: Q01DX007 (ip), vehicle: carboxymethylcellulose (CMC)): 33 % of control; T/C (dose: 1.0 mg/kg/injection, schedule: Q#A X014 (ip), vehicle: carboxymethylcellulose (CMC)): 25 % of control; T/C (dose: 1.15 mg/kg/injection, schedule: Q01DX007 (ip), vehicle: carboxymethylcellulose (CMC)): 39 % of control; T/C (dose: 1.15 mg/kg/injection, schedule: Q#A X014 (ip), vehicle: carboxymethylcellulose (CMC)): 7 % of control; T/C (dose: 1.53 mg/kg/injection, schedule: Q01DX007 (ip), vehicle: carboxymethylcellulose (CMC)): 30 % of control; T/C (dose: 2.1 mg/kg/injection, schedule: Q01DX007 (ip), vehicle: carboxymethylcellulose (CMC)): 11 % of control and 12 % of control; T/C (dose: 2.3 mg/kg/injection, schedule: Q01DX007 (ip), vehicle: carboxymethylcellulose (CMC)): 14 % of control; T/C (dose: 2.3 mg/kg/injection, schedule: Q#A X014 (ip), vehicle: carboxymethylcellulose (CMC)): 3 % of control; T/C (dose: 4.2 mg/kg/injection, schedule: Q01DX007 (ip), vehicle: carboxymethylcellulose (CMC)): 3 % of control and 7 % of control; T/C (dose: 4.6 mg/kg/injection, schedule: Q#A X014 (ip), vehicle: carboxymethylcellulose (CMC)): 4 % of control; T/C (dose: 6.3 mg/kg/injection, schedule: Q01DX007 (ip), vehicle: carboxymethylcellulose (CMC)): 2 % of control and 5 % of control

Q: `O=C(O)O.[Cd]` was tested. Which T/C (dose: 5.0 mg/kg/injection, schedule: Q01DX007 (ip), vehicle: carboxymethylcellulose (CMC)) did it give?
A: Its T/C is 69 % of control.

Q: `Cc1cc(C(=O)NN)c(C#N)c(=O)[nH]1` was tested. Which T/C (dose: 111.0 mg/kg/injection, schedule: Q01DX007 (ip), vehicle: carboxymethylcellulose (CMC)) did it give?
A: The T/C was 82 % of control.

Q: And the T/C (dose: 166.0 mg/kg/injection, schedule: Q01DX007 (ip), vehicle: carboxymethylcellulose (CMC))?
A: The T/C was 87 % of control.

Q: And the T/C (dose: 250.0 mg/kg/injection, schedule: Q01DX007 (ip), vehicle: carboxymethylcellulose (CMC))?
A: Its T/C is 30 % of control.

Q: And the T/C (dose: 375.0 mg/kg/injection, schedule: Q01DX007 (ip), vehicle: carboxymethylcellulose (CMC))?
A: Its T/C is 46 % of control.

Q: What does the source list for `O=c1[nH]cc(N(CCCl)CCCl)c(=O)[nH]1`?
A: T/C (dose: 0.2 mg/kg/injection, schedule: Q01DX007 (ip), vehicle: carboxymethylcellulose (CMC)): 104 % of control; T/C (dose: 0.31 mg/kg/injection, schedule: Q#A X014 (ip), vehicle: carboxymethylcellulose (CMC)): 51 % of control; T/C (dose: 0.32 mg/kg/injection, schedule: Q#A X014 (ip), vehicle: carboxymethylcellulose (CMC)): 65 % of control; T/C (dose: 0.4 mg/kg/injection, schedule: Q01DX007 (ip), vehicle: carboxymethylcellulose (CMC)): 88 % of control; T/C (dose: 0.4 mg/kg/injection, schedule: Q#A X014 (ip), vehicle: carboxymethylcellulose (CMC)): 67 % of control; T/C (dose: 0.53 mg/kg/injection, schedule: Q#A X014 (ip), vehicle: carboxymethylcellulose (CMC)): 67 % of control; T/C (dose: 0.62 mg/kg/injection, schedule: Q#A X014 (ip), vehicle: carboxymethylcellulose (CMC)): 32 % of control; T/C (dose: 0.64 mg/kg/injection, schedule: Q01DX007 (ip), vehicle: carboxymethylcellulose (CMC)): 85 % of control; T/C (dose: 0.75 mg/kg/injection, schedule: Q01DX007 (ip), vehicle: saline): 85 % of control; T/C (dose: 0.8 mg/kg/injection, schedule: Q01DX007 (ip), vehicle: carboxymethylcellulose (CMC)): 62 % of control and 76 % of control; T/C (dose: 0.8 mg/kg/injection, schedule: Q#A X014 (ip), vehicle: carboxymethylcellulose (CMC)): 41 % of control; T/C (dose: 1.06 mg/kg/injection, schedule: Q01DX007 (ip), vehicle: carboxymethylcellulose (CMC)): 51 % of control; T/C (dose: 1.5 mg/kg/injection, schedule: Q01DX007 (ip), vehicle: saline): 60 % of control; T/C (dose: 1.5 mg/kg/injection, schedule: Q#A X014 (ip), vehicle: alkali diluted with saline): 21 % of control; T/C (dose: 1.6 mg/kg/injection, schedule: Q01DX007 (ip), vehicle: carboxymethylcellulose (CMC)): 21 % of control

Q: How did the T/C (dose: 41.5 mg/kg/injection, schedule: Q#A X014 (ip), vehicle: methylcellulose (MC)) turn out when `O=C(Nc1ccc2cc(S(=O)(=O)O)ccc2c1)c1ccc(N=Nc2c(S(=O)(=O)O)cc3cc(S(=O)(=O)O)cc(NC(=O)c4ccccc4)c3c2O)cc1` was run?
A: Its T/C is 52 % of control and 61 % of control and 77 % of control.

Q: And the T/C (dose: 93.5 mg/kg/injection, schedule: Q#A X014 (ip), vehicle: methylcellulose (MC))?
A: Its T/C is 44 % of control and 63 % of control.

Q: Which results are given for `O=C(Nc1ccc(NC2=NCCN2)cc1)c1ccc(C(=O)Nc2ccc(NC3=NCCN3)cc2)cc1`?
A: T/C (dose: 2.0 mg/kg/injection, schedule: Q01DX007 (ip), vehicle: saline): 109 % of control; T/C [4]: 95 % of control; T/C (dose: 8.0 mg/kg/injection, schedule: Q01DX007 (ip), vehicle: saline): 97 % of control; T/C (dose: 16.0 mg/kg/injection, schedule: Q01DX007 (ip), vehicle: saline): 43 % of control

Q: What does the source list for `OC(CBr)C(O)C(O)C(O)CBr` (stereo not drawn)?
A: T/C (dose: 25.0 mg/kg/injection, schedule: Q01DX007 (ip), vehicle: saline): 106 % of control; T/C (dose: 50.0 mg/kg/injection, schedule: Q01DX007 (ip), vehicle: saline): 95 % of control and 117 % of control; T/C [2]: 104 % of control and 107 % of control; T/C (dose: 400.0 mg/kg/injection, schedule: Q01DX007 (ip), vehicle: saline): 88 % of control

Q: How did the T/C (dose: 20.0 mg/kg/injection, schedule: Q01DX007 (ip), vehicle: saline) turn out when `CCOC(=O)CCCc1ccc(N=NN(C)C)cc1` was run?
A: Its T/C is 99 % of control.

Q: And the T/C (dose: 30.0 mg/kg/injection, schedule: Q01DX007 (ip), vehicle: saline)?
A: The T/C was 69 % of control.

Q: What about the T/C (dose: 40.0 mg/kg/injection, schedule: Q01DX007 (ip), vehicle: saline) of the same compound?
A: The T/C was 63 % of control.

Q: And the T/C (dose: 60.0 mg/kg/injection, schedule: Q01DX007 (ip), vehicle: saline)?
A: Its T/C is 68 % of control.

Q: What about the T/C (dose: 75.0 mg/kg/injection, schedule: Q01DX007 (ip), vehicle: saline) of the same compound?
A: Its T/C is 38 % of control.

Q: What about the T/C [2] of the same compound?
A: Its T/C is 44 % of control.

Q: What about the T/C [3] of the same compound?
A: The T/C was 31 % of control.

Q: What about the T/C (dose: 200.0 mg/kg/injection, schedule: Q01DX007 (ip), vehicle: saline) of the same compound?
A: The T/C was 12 % of control.

From PubChem BioAssay AID342 (DTP/NCI, 2004)
